The IC50 is the midpoint of a concentration-inhibition curve. In general, melting point refers to the temperature of the solid-liquid transition.

Molecules are shown by their SMILES.

The text below walks through data of patent publication US8222219B2, “Glucopyranoside compound” (Mitsubishi Tanabe Pharma Corporation, priority 2003, dated 2012).

The subject of one series is Sprague-Dawley (SD) rats. Put plainly: Urinary glucose excretion test in rats. The settings on record: male SD rats, 30 mg/kg oral gavage, urine collected for 24 hours; daily amount of glucose excreted per individual. Type of series: in vivo, rat. As to the method: 2. Urinary Glucose Excretion Test in Rats Test Compounds:
Compounds described in the above examples were used for the urinary glucose excretion test in rats.
6-week-old male Sprague-Dawley (SD) rats were housed in individual metabolic cages with free access to food and water from 2 days prior to the experiment. On the morning of the experiment, rats were administered vehicle (0.2% carboxymethyl cellulose solution containing 0.2% Tween80) or test compounds (30 mg/kg) by oral gavage at a volume of 10 ml/kg. Then, urine of the rat was collected for 24 hours, and the urine volume was measured. Subsequently, the glucose concentration in urine was quantified using the enzymatic assay kit and the daily amount of glucose excreted in urine per individual was calculated.

The target in a further series is T1, human SGLT2 (Homo sapiens, UniProt P31639).
T1 construct: expressed in transfected cells; host or cells: CHOK1 (CHO-K1) cells, kept under Geneticin selection
T1 sequence (P31639 1-672): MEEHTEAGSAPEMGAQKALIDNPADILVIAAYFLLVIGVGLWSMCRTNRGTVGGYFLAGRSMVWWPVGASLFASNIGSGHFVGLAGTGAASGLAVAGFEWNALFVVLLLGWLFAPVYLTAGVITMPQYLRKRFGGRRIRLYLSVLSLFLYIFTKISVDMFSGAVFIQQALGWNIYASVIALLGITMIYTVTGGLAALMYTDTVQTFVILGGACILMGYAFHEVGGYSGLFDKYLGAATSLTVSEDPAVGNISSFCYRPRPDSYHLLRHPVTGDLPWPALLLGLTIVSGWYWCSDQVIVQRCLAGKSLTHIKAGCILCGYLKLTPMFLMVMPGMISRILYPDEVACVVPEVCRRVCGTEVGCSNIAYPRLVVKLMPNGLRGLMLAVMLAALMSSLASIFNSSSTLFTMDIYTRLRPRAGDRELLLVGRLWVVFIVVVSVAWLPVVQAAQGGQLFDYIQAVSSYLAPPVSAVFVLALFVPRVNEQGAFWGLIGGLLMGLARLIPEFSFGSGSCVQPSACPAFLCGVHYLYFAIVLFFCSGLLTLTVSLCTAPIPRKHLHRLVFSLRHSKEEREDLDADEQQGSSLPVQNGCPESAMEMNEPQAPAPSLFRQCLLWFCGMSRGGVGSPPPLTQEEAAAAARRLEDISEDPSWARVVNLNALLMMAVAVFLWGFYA
Put plainly: Assay for SGLT2 inhibition (14C-AMG uptake in CHOK1 cells expressing human SGLT2). Type of series: cell-based. The settings on record: CHOK1 cells expressing human SGLT2; 14C-AMG uptake 0.5 mM, 2 hours at 37° C.; read-out: IC50. Here is the method:
1. Assay for SGLT2 Inhibition
Compounds described in the above examples were used for the SGLT2 inhibition assay.
CHOK1 cells expressing human SGLT2 were seeded in 24-well plates at a density of 400,000 cells/well in F-12 nutrient mixture (Ham's F-12) containing 10% fetal bovine serum, 400 μg/ml Geneticin, 50 units/ml sodium penicillin G (Gibco-BRL) and 50 μg/ml streptomycin sulfate. […] Test compounds were dissolved in DMSO. The final concentration of DMSO was 0.5%. The transport reaction was initiated by addition of 50 μl [^14C]-methyl-α-D-glucopyranoside (^14C-AMG) solution (final concentration, 0.5 mM). After incubation for 2 hours at 37° C., the uptake was stopped by aspiration of the incubation mixture, the cells were washed three times with ice-cold PBS. Then, cells were solubilized with 0.3 N NaOH and aliquots were taken for determination of radioactivity by a liquid scintillation counter. Nonspecific AMG uptake was defined as that which occurred in the presence of 100 μM of phlorizin, a specific inhibitor of sodium-dependent glucose cotransporter. Specific uptake was normalized for the protein concentrations measured by the method of Bradford.

`Cc1ccc([C@@H]2O[C@H](CO)[C@@H](O)[C@H](O)[C@H]2O)cc1Cc1ccc(-c2ccc(F)s2)s1` [Example 148]: in the series with Sprague-Dawley (SD) rats, the Urinary glucose result is reported as “B (2000 mg>B≧1000 mg)”. The IC50 on human SGLT2 came out at 2.8 nM.
For `Cc1ccc([C@@H]2O[C@H](CO)[C@@H](O)[C@H](O)[C@H]2O)cc1Cc1ccc(-c2ccc(C#N)cc2)s1` [Example 151], in that order: “B (2000 mg>B≧1000 mg)” and 2.5 nM.
In the case of `OC[C@H]1O[C@@H](c2ccc(Cl)c(Cc3ccc(-c4cccc(F)n4)s3)c2)[C@H](O)[C@@H](O)[C@@H]1O` [Example 156], the Urinary glucose entry in the series with Sprague-Dawley (SD) rats is reported as “A (A≧2000 mg)”. In addition, the IC50 at human SGLT2 was 1.1 nM.
Taken in the same sequence, the figures for `OC[C@H]1O[C@@H](c2ccc(Cl)c(Cc3ccc(-c4ccc(F)nc4)s3)c2)[C@H](O)[C@@H](O)[C@@H]1O` [Example 168, 1-(β-D-glucopyranosyl)-4-chloro-3-(5-(6-fluoro-3-pyridyl)-2-thienylmethyl)benzene] were “A (A≧2000 mg)” and 2.3 nM.
Taken in the same sequence, the figures for `COc1ccc(-c2ccc(Cc3cc([C@@H]4O[C@H](CO)[C@@H](O)[C@H](O)[C@H]4O)ccc3Cl)s2)cn1` [Example 169, 1-(β-D-glucopyranosyl)-4-chloro-3-(5-(6-methoxy-3-pyridyl)-2-thienylmethyl)benzene] were “B (2000 mg>B≧1000 mg)” and 3.6 nM.
Take `COc1cccc(-c2ccc(Cc3cc([C@@H]4O[C@H](CO)[C@@H](O)[C@H](O)[C@H]4O)ccc3Cl)s2)n1` [Example 170, 1-(β-D-glucopyranosyl)-4-chloro-3-(5-(6-methoxy-2-pyridyl)-2-thienylmethyl)benzene]: the Urinary glucose entry with Sprague-Dawley (SD) rats is given as “B (2000 mg>B≧1000 mg)”. For the same molecule, the IC50 on human SGLT2 is 3.5 nM.
Taken in the same sequence, the figures for `Cc1ccc([C@@H]2O[C@H](CO)[C@@H](O)[C@H](O)[C@H]2O)cc1Cc1ccc(-c2ccc(F)c(F)c2)s1` [Example 177, 1-(β-D-glucopyranosyl)-3-(5-(3,4-difluorophenyl)-2-thienylmethyl)-4-methylbenzene] were “A (A≧2000 mg)” and 6.7 nM.
On to `OC[C@H]1O[C@@H](c2ccc(Cl)c(Cc3ccc(-c4cccc(C(F)F)c4)s3)c2)[C@H](O)[C@@H](O)[C@@H]1O` [Example 178, 1-(β-D-glucopyranosyl)-4-chloro-3-(5-(3-difluoromethylphenyl)-2-thienylmethyl)benzene], for which, in the series on Sprague-Dawley (SD) rats, the Urinary glucose entry is “B (2000 mg>B≧1000 mg)”. On human SGLT2, the IC50 is 5.1 nM.
For the molecule `N#Cc1cccc(-c2ccc(Cc3cc([C@@H]4O[C@H](CO)[C@@H](O)[C@H](O)[C@H]4O)ccc3F)s2)c1` [Example 189, 1-(β-D-glucopyranosyl)-4-fluoro-3-(5-(3-cyanophenyl)-2-thienylmethyl)benzene], the melting point is 127 to 129 °C. The Urinary glucose entry in the series on Sprague-Dawley (SD) rats is reported as “B (2000 mg>B≧1000 mg)”. For the same molecule, the half-maximal inhibitory concentration (IC50) at human SGLT2 is 2.4 nM.
`OC[C@H]1O[C@@H](c2ccc(F)c(Cc3ccc(-c4nccs4)s3)c2)[C@H](O)[C@@H](O)[C@@H]1O` [Example 190, 1-(β-D-glucopyranosyl)-4-fluoro-3-(5-(2-thiazolyl)-2-thienylmethyl)benzene] had a melting point of 161.5 to 162 °C. The IC50 on human SGLT2 came out at 3.1 nM.
On to `OC[C@H]1O[C@@H](c2ccc(Cl)c(Cc3ccc(-c4ccc(F)cn4)s3)c2)[C@H](O)[C@@H](O)[C@@H]1O` [Example 194, 1-(β-D-glucopyranosyl)-4-chloro-3-(5-(5-fluoropyridin-2-yl)-2-thienylmethyl)benzene], for which the Urinary glucose result with Sprague-Dawley (SD) rats is listed as “A (A≧2000 mg)”. At human SGLT2, the IC50 was found to be 2.6 nM.
